Source: patent US11208412B2 (DAEGU-GYEONGBUK MEDICAL INNOVATION FOUNDATION, priority 2017, dated 2021)

Legend:
Test in all cases: Kinase selectivity, DiscoverX scanMAX Kinase assay panel (% control)
Assay type in all cases: binding
[1] = target: T1, kinases of the scanMAX Kinase assay panel (Homo sapiens, UniProt Q6ZN16); details: MAP3K15; 1 uM
T1 construct: purchased DiscoverX Co. (contract measurement) scanMAX Kinase assay panel
T1 sequence (Q6ZN16 1-1313): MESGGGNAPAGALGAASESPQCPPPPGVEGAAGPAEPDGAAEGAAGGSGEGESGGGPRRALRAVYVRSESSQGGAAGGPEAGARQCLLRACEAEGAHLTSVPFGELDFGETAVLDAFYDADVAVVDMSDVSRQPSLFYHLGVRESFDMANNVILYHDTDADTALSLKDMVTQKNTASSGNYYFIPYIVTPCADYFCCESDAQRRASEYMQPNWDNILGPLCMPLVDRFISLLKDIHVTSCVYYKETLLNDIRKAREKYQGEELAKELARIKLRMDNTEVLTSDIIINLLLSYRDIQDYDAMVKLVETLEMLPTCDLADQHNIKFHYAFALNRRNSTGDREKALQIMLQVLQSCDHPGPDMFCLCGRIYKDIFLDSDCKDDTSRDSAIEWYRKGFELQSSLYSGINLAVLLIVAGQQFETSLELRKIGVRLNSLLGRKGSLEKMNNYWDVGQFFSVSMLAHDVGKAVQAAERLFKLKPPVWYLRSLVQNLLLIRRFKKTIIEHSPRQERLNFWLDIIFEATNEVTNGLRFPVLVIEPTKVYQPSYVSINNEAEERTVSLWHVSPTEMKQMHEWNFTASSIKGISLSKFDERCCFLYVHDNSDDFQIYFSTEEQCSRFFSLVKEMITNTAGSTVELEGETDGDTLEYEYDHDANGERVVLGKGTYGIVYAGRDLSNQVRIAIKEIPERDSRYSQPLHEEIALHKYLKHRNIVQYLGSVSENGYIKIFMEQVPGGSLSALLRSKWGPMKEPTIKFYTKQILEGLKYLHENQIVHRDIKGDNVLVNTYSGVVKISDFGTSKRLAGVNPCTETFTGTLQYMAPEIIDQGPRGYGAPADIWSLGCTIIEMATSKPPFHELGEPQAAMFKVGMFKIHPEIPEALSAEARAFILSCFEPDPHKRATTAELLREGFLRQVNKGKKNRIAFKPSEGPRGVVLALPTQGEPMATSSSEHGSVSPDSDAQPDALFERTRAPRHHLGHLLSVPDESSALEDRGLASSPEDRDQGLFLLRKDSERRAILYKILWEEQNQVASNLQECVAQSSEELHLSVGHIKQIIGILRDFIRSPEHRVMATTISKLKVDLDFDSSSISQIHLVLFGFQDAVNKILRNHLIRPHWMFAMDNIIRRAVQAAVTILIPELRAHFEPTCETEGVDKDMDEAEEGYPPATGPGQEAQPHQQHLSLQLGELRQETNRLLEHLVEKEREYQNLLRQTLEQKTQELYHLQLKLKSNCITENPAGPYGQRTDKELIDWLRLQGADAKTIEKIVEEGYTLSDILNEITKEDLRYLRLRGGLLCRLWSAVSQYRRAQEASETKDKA
Outline: (§1)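 Compounds were tested at 1 uM (in DMSO) against each panel kinase. % control was calculated as (compound − positive control)/(negative control − positive control)×100, where the positive control gives 0% and DMSO gives 100%. Activity toward a kinase was called at % control <35%.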

[2] = target: T2, kinases of the scanMAX Kinase assay panel (Homo sapiens, UniProt Q9BQI3); details: EIF2AK1; 1 uM
T2 construct: purchased DiscoverX Co. (contract measurement) scanMAX Kinase assay panel
Outline: as §1

[3] = target: T3, kinases of the scanMAX Kinase assay panel (Homo sapiens, UniProt P21802); details: FGFR2; 1 uM
T3 construct: purchased DiscoverX Co. (contract measurement) scanMAX Kinase assay panel
Outline: as §1

[4] = target: T4, kinases of the scanMAX Kinase assay panel (Homo sapiens, UniProt P10721); details: 1 uM
T4 construct: purchased DiscoverX Co. (contract measurement) scanMAX Kinase assay panel
Outline: as §1

[5] = target: T5, kinases of the scanMAX Kinase assay panel (Homo sapiens, UniProt P25098); details: GRK2; 1 uM
T5 construct: purchased DiscoverX Co. (contract measurement) scanMAX Kinase assay panel
T5 sequence (P25098 1-689): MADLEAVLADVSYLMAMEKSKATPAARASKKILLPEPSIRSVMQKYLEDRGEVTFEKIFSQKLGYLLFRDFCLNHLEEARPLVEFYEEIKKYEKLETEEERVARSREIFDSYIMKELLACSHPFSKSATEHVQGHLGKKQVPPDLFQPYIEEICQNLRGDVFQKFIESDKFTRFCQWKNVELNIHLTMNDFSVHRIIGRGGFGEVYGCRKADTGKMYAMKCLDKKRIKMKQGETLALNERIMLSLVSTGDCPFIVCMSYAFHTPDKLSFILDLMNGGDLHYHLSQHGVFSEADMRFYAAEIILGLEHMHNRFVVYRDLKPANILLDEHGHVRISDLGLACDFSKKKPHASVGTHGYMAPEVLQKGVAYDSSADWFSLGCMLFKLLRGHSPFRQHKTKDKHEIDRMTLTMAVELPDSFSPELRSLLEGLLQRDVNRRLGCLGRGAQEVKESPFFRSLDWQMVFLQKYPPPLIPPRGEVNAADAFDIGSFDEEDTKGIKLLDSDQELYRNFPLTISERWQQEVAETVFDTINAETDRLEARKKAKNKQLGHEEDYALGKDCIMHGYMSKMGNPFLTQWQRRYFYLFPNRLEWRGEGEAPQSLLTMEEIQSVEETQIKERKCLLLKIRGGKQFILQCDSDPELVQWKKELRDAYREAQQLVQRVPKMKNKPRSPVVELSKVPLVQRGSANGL
Outline: as §1

T2 sequence (Q9BQI3 whole entry): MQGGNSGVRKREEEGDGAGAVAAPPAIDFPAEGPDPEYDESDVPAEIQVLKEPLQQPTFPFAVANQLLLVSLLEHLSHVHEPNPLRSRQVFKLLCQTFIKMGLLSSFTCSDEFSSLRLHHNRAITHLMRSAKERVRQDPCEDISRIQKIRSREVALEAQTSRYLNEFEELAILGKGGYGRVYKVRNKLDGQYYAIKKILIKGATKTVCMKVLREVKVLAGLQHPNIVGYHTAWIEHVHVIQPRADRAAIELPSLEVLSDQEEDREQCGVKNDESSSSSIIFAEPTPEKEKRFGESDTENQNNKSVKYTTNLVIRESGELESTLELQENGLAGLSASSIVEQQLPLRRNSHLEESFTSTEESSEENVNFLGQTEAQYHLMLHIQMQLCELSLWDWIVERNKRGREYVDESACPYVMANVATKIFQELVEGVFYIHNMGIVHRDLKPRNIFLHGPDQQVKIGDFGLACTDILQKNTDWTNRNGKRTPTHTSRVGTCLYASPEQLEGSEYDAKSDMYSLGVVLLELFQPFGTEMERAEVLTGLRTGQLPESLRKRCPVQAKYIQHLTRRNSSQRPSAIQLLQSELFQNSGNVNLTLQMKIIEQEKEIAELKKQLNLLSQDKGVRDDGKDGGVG
T3 sequence (P21802 22-821): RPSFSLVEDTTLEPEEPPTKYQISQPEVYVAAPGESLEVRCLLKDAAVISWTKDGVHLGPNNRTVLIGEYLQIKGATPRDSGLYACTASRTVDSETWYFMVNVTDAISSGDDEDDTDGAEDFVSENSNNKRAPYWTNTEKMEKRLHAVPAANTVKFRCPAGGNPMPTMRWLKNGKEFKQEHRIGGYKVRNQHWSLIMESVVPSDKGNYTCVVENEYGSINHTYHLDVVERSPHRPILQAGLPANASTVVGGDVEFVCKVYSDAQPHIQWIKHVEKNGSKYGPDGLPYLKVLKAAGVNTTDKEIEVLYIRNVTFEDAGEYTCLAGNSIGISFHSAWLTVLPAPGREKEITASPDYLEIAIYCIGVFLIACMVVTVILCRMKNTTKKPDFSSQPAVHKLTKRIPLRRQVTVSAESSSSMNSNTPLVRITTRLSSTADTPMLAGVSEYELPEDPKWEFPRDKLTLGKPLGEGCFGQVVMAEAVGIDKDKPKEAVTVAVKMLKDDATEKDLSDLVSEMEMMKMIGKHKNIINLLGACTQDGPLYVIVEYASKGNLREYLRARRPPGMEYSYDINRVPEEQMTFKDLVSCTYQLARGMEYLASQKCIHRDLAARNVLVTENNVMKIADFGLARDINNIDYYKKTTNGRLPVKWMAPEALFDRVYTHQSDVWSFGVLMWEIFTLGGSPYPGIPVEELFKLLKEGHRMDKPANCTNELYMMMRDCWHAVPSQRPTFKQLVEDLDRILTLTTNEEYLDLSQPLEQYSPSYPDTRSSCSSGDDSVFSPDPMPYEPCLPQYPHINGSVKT
T4 sequence (P10721 26-976): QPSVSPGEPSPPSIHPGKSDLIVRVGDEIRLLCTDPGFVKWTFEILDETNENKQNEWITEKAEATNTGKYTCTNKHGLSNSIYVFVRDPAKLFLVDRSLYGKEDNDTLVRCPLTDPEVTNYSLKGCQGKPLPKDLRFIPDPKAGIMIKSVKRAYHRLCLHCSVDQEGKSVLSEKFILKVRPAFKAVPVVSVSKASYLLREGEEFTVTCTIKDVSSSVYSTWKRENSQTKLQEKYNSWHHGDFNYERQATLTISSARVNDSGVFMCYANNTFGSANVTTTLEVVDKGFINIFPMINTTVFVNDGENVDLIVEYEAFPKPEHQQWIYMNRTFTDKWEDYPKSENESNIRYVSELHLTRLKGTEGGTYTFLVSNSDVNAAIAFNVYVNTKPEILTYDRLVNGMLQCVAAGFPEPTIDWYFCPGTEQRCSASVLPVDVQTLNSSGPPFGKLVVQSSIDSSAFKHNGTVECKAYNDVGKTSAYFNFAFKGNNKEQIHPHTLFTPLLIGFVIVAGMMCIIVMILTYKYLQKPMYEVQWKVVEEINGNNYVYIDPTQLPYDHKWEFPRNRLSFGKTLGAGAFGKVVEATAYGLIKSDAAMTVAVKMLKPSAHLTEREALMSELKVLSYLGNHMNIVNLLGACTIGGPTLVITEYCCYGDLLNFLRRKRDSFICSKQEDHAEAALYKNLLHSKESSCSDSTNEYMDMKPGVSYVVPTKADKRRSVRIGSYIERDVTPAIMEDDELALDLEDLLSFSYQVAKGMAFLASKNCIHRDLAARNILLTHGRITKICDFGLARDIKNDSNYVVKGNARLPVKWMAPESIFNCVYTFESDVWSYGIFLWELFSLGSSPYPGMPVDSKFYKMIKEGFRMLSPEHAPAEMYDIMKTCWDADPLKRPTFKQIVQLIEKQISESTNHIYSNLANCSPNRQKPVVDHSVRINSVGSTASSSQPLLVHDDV

CCNc1nc(Nc2ccc(C(=O)N3CCC(N4CCOCC4)CC3)cc2OC)nc2[nH]cc(C(F)(F)F)c12 [Example 104, (4-((4-(ethylamino)-5-(trifluoromethyl)-7H-pyrrolo[2,3-d]pyrimidine-2-yl)amino)-3-methoxyphenyl)(4-morpholinopiperidine-1-yl)methanone]
remaining binding at 1 µM [1]: 61% | remaining binding at 1 µM [2]: 90% | remaining binding at 1 µM [3]: 96% | remaining binding at 1 µM ([4]; KIT-autoinhibited): 74% | remaining binding at 1 µM ([4]; KIT): 56% | remaining binding at 1 µM [5]: 96%

CC1(Nc2nc(Nc3cnn([C@H]4CCN(C5COC5)C[C@@H]4F)c3Cl)nc3[nH]cc(C#N)c23)CC1 [Example 52, 2-((5-chloro-1-((3S,4S)-3-fluoro-1-(oxetane-3-yl)piperidine-4-yl)-1H-pyrazole-4-yl)amino)((1-methylcyclopropyl)amino)-7H-pyrrolo[2,3-d]pyrimidine-5-carbonitrile]
remaining binding at 1 µM [1]: 27% | remaining binding at 1 µM [2]: 86% | remaining binding at 1 µM [3]: 26% | remaining binding at 1 µM ([4]; KIT-autoinhibited): 0.1% | remaining binding at 1 µM ([4]; KIT): 0.15% | remaining binding at 1 µM [5]: 45%

CNc1nc(Nc2ccc(C(=O)N3CCOCC3)cc2OC)nc2[nH]cc(C#N)c12 [Example 1, 2-((2-methoxy-4-(morpholine-4-carbonyl)phenyl)amino)-4-(methylamino)-7H-pyrrolo[2,3-d]pyrimidine-5-carbonitrile]
remaining binding at 1 µM [1]: 35% | remaining binding at 1 µM [2]: 64% | remaining binding at 1 µM [3]: 95% | remaining binding at 1 µM ([4]; KIT-autoinhibited): 59% | remaining binding at 1 µM ([4]; KIT): 48% | remaining binding at 1 µM [5]: 97%
